“And” between values parts separate entries of the source, which are not always exact repeats. Equal entries are not always repeated.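 Tested at 5 concentrations; 48 h exposure; 96-well plates; endpoints linearly interpolated, else capped at highest concentration. GI50 is the concentration that inhibits growth by half. TGI: total growth inhibition.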
How the values were obtained:
Experiment in all cases: NCI anticancer screen, dose series, 48 h
[1] = system: BT-549 breast
[2] = system: HCT-15 colon
[3] = system: KM12 colon
[4] = system: MDA-MB-435
[5] = system: RXF 393 renal
[6] = system: SF-268 CNS
[7] = system: SK-MEL-5 melanoma
[8] = system: SK-OV-3 ovarian
[9] = system: SNB-75 CNS
[10] = system: UACC-62 melanoma

Row | Structure (SMILES) | TGI [1] | TGI [2] | TGI [3] | TGI [4] | TGI [5] | TGI [6] | TGI [7] | TGI [8] | TGI [9] | TGI [10] | GI50 [1] | GI50 [2] | GI50 [3] | GI50 [4] | GI50 [7] | GI50 [8] | GI50 [9] | GI50 [10] | GI50 [5]
1 | O=C1c2c(Br)sc(Br)c2[C@@H](O)[C@H]1O | 35.6 µM | 30.1 µM | 45.1 µM | 25.8 µM | 30 µM | 24.7 µM | 32.4 µM | 29.4 µM | 31.6 µM | 30.4 µM |  |  |  |  |  |  |  |  | 
2 | CN(C)c1ccc(-c2ccc(-c3ccc(C(=N)N)cn3)o2)cc1 | 3.5 µM | 2.98 µM | 3.01 µM | 2.5 µM |  |  | 3 µM | 3.28 µM | 3 µM | 3.34 µM | 1.8 µM | 1.36 µM | 1.43 µM | 1.24 µM | 1.58 µM | 1.88 µM | 1.59 µM | 1.76 µM | 
3 | COc1ccc(N2C(=O)C(=O)C3(CCCCC3)C2=O)c2ccccc12 |  | > 10 µM | > 10 µM | > 10 µM | > 10 µM | > 10 µM | > 10 µM | > 10 µM | > 10 µM | > 10 µM |  |  |  |  |  |  |  |  | 
4 | O=c1c2cc(O)ccc2n2nnc3ccc(NCCNCCO)c1c32 |  | > 100 µM | > 85.3 µM and 25.2 µM |  | 14.4 µM and 9.34 µM | 11.2 µM and 13.1 µM | 28.9 µM and 11.7 µM | > 100 µM and 37 µM | 17 µM and 18.3 µM | 19.4 µM and 13.3 µM |  |  |  |  | 12.9 µM and 2.39 µM |  | 2.68 µM and 5.5 µM | 6.87 µM and 3.14 µM | 3.26 µM and 1.15 µM
5 | CC(=O)c1ccc(Nc2c3ccccc3nc3occc23)cc1 | > 100 µM | > 42.8 µM | 1.59 µM | < 0.01 µM | < 0.0216 µM | 7.49 µM | 3.91 µM | 13.2 µM |  | 10.7 µM |  |  |  |  |  |  |  |  | 
6 | O=[N+]([O-])c1ccc(N=Nc2c(O)[nH]c3ccccc23)c([N+](=O)[O-])c1 | 34.1 µM | 57.9 µM | > 100 µM | > 100 µM | 31.5 µM | > 100 µM | > 100 µM | 32.4 µM | 72.3 µM | > 100 µM |  |  |  |  |  |  |  |  | 
7 | COc1ccccc1-c1c(C#N)c(N)[nH]c(=S)c1C#N | > 100 µM | > 100 µM | > 100 µM | > 100 µM | > 100 µM | > 100 µM | > 100 µM |  |  | > 100 µM |  |  |  |  |  |  |  |  | 
8 | Cc1ccc(-c2cc(-c3ccc(Cl)cc3)nc(/N=C3\C(=O)N(CN(C)C)c4ccccc43)n2)cc1 | > 100 µM | > 100 µM | > 100 µM | 32.1 µM | 63.9 µM | > 100 µM | > 100 µM | > 100 µM | > 100 µM | > 100 µM |  |  |  |  |  |  |  |  | 
9 | Nc1nc(SCC(=O)c2ccc(Br)cc2)c2[nH]cnc2n1 | > 100 µM | > 100 µM | > 100 µM | > 100 µM | > 100 µM | > 100 µM | 60.3 µM | > 100 µM | 73 µM | > 100 µM |  |  |  |  |  |  |  |  | 
10 | COc1cccc(C23CCN(C)C(CC(O)C2)C3)c1OC (centres undefined) | > 100 µM | > 100 µM | > 100 µM | > 100 µM |  | > 100 µM | > 100 µM | > 100 µM |  | > 100 µM |  |  |  |  |  |  |  |  | 
11 | CN1CCC(C(O)(c2ccccc2)c2ccc(Br)cc2)CC1 (centres undefined) | > 100 µM | > 100 µM | 43.2 µM | 30.7 µM | 64.4 µM | > 100 µM | 27.9 µM | > 100 µM | 91.5 µM | 30.1 µM |  |  |  |  |  |  |  |  | 
12 | O=P(NCCCO)(OCc1ccccc1)N(CCCl)CCCl (centres undefined) |  | > 100 µM | > 100 µM |  | > 100 µM | > 100 µM | > 100 µM | > 100 µM | > 100 µM | > 100 µM |  |  |  |  |  |  |  |  | 
13 | COc1ccc2nc3cc(Cl)ccc3c(NCCCN3CCN(CCCNc4ccc5nnn6c7ccccc7c(=O)c4c56)CC3)c2c1 | > 14.8 µM | > 25 µM | > 25 µM | > 25 µM | 6.25 µM | > 25 µM | > 25 µM | > 25 µM | > 25 µM | > 25 µM |  |  |  |  |  |  |  |  | 
14 | COc1ccc(CCn2cncn2)cc1 |  | > 100 µM | > 100 µM |  |  | > 100 µM | > 100 µM | > 100 µM | > 100 µM | > 100 µM |  |  |  |  |  |  |  |  | 
15 | CCCCCCCCCCCCCCCc1nc(=S)[nH][nH]1 |  | > 100 µM | > 100 µM |  | > 100 µM | > 100 µM |  | > 100 µM | > 100 µM | > 100 µM |  |  |  |  |  |  |  |  | 
16 | CCOc1nc2c(N3CCCC3)nc(N3CCNCC3)nc2nc1NCc1ccccc1 | 3.51 µM | 3.45 µM | 3.08 µM | 2.72 µM | 2.29 µM | 3.03 µM | 2.71 µM | 3.26 µM | 2.46 µM | 3.25 µM |  |  |  |  |  |  |  |  | 
